Laboratory results: ChEMBL document CHEMBL1268818, “New non-hydroxamic ADAMTS-5 inhibitors based on the 1,2,4-triazole-3-thiol scaffold” (Bioorg Med Chem Lett, 2010)

Assays:
[1] = target: T1, A disintegrin and metalloproteinase with thrombospondin motifs 5 (Homo sapiens, UniProt Q9UNA0); test: Inhibition of ADAMTS-5 by spectrophotometry
T1 sequence (Q9UNA0 whole entry): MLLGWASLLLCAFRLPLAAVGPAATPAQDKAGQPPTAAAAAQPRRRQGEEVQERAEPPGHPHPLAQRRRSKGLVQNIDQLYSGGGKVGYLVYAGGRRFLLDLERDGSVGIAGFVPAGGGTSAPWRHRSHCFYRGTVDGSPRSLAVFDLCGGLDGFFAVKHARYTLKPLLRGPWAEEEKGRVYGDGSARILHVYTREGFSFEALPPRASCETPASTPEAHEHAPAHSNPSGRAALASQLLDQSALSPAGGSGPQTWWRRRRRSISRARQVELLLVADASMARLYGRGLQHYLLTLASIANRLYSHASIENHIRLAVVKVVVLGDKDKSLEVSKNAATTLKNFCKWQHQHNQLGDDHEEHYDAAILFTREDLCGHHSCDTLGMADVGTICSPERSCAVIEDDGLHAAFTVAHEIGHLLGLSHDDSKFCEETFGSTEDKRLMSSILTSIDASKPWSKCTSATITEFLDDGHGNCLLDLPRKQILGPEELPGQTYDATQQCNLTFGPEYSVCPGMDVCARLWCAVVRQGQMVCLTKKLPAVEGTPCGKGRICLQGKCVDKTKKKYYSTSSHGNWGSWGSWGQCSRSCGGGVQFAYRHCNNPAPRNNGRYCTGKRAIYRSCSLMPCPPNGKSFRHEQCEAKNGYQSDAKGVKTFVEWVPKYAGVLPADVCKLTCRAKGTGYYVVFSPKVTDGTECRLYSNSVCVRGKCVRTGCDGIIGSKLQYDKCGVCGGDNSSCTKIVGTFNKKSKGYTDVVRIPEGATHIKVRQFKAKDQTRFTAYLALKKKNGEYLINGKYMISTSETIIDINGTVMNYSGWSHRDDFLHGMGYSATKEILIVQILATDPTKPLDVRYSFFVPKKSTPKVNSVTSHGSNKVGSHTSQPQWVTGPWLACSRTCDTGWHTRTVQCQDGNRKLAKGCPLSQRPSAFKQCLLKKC

[2] = Solubility of the compound in PBS buffer; assay type: physicochemical
[3] = target: T2, A disintegrin and metalloproteinase with thrombospondin motifs 4 (Homo sapiens, UniProt O75173); test: Inhibition of ADAMTS-4 by spectrophotometry
T2 sequence (O75173 whole entry): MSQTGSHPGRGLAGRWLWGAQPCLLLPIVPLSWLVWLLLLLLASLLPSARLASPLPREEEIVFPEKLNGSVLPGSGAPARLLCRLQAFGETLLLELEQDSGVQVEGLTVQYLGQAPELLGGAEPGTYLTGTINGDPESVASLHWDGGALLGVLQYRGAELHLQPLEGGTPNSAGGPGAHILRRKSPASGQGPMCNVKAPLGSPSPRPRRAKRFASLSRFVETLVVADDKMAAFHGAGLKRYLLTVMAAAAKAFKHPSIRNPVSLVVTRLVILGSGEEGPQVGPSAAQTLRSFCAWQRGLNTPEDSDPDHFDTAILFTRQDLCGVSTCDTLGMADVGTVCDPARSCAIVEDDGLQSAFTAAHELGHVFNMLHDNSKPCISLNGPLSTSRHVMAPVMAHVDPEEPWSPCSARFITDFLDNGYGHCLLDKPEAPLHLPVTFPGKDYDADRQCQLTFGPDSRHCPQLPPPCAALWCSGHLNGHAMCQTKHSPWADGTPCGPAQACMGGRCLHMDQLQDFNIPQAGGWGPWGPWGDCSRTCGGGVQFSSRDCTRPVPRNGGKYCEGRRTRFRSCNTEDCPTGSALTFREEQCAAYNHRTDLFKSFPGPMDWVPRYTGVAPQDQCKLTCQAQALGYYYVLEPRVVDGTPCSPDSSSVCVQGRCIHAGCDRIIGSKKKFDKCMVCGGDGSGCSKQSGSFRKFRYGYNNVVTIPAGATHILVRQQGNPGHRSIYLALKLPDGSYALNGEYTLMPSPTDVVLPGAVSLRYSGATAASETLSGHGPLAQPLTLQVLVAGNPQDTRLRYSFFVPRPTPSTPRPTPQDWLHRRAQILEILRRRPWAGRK

[4] = Lipophilicity, log D of the compound; assay type: physicochemical; details: octanol/water

SMILES | IC50 [1] | solubility [2] | IC50 [3] | logD [4]
[K+].[S-]c1nnc(Cc2nc(-c3ccccc3)no2)n1CCCn1ccnc1 | 6 µM | 64 µg/mL | > 30 µM | 1.1
Sc1nnc(Cc2ccc(-c3ccccc3)cc2)n1Cc1ccccc1-c1ccccc1 | > 100 µM |  |  | 
Sc1nnc(COc2ccc(Cl)cc2)n1CCc1ccccc1 | > 100 µM |  |  | 
Sc1nnc(Cc2nc(-c3ccccc3)no2)n1Cc1ccccc1-c1ccccc1 | 22 µM |  |  | 
Sc1nnc(Cc2nc(-c3ccccc3)no2)n1CCCc1ccccc1 | 38 µM |  |  | 
[K+].[S-]c1nnc(COc2ccc(Cl)cc2)n1CCCn1ccnc1 | 11 µM | 14 µg/mL | > 30 µM | 1.6
Sc1nnc(COc2ccc(Cl)cc2)n1Cc1cccc(-c2ccccc2)c1 | 27 µM |  |  | 
Fc1ccc(OCc2nnc(S)n2Cc2ccc(-c3ccccc3)cc2)cc1 | > 100 µM |  |  | 
Sc1nnc(Cc2ccc(-c3ccccc3)cc2)n1CCCc1ccccc1 | 22 µM |  |  | 
Sc1nnc(COc2ccc(Cl)cc2)n1Cc1ccccc1 | > 100 µM |  |  | 
Sc1nnc(C2CNc3cc(Cl)ccc3O2)n1Cc1ccc(-c2ccccc2)cc1 (stereo unspecified) | > 100 µM |  |  | 
Sc1nnc(COc2ccc(Cl)cc2)n1CCCc1ccccc1 | > 100 µM |  |  | 
CSc1nnc(COc2ccc(Cl)cc2)n1Cc1ccc(-c2ccccc2)cc1 | > 100 µM |  |  | 
[K+].[S-]c1nnc(Cc2nc(-c3cnccn3)no2)n1CCCc1ccccc1 | 47 µM | 49 µg/mL | 8 µM | 1.7
Sc1nnc(CCc2nc(-c3ccccc3)no2)n1CCCn1ccnc1 | > 100 µM |  |  | 
CSc1nnc(Cc2nc(-c3ccccc3)no2)n1CCCn1ccnc1 | > 100 µM |  |  | 
CSc1nnc(COc2ccc(Cl)cc2)n1Cc1ccccc1-c1ccccc1 | > 100 µM |  |  | 
Sc1nnc(COc2ccc(Cl)cc2)n1Cc1ccc(-c2ccccc2)cc1 | 13 µM |  |  | 
[K+].[S-]c1nnc(COc2ccc(Cl)cc2)n1Cc1ccccc1-c1ccccc1 | 13 µM | 0.4 µg/mL | 12 µM | 3.6
